Test results published in PubChem BioAssay (NCI).
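The compound was tested at five concentrations on cells cultured in 96-well plates, with a 48-hour exposure period. At the TGI there is no net growth.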

Key:
Assay in all cases: NCI-60 cell line screen, 48 h
[1] = system: 786-0 renal
[2] = system: A498 renal
[3] = system: A549 NSCLC
[4] = system: ACHN renal
[5] = system: BT-549 breast
[6] = system: CAKI-1 renal
[7] = system: CCRF-CEM leukemia
[8] = system: COLO 205 colon
[9] = system: DU-145 prostate
[10] = system: EKVX NSCLC
[11] = system: HCC-2998 colon
[12] = system: HCT-116 colon
[13] = system: HCT-15 colon
[14] = system: HOP-62 NSCLC
[15] = system: HOP-92 NSCLC
[16] = system: K-562 leukemia
[17] = system: KM12 colon
[18] = system: M14 melanoma
[19] = system: MALME-3M melanoma
[20] = system: MCF7 breast
[21] = system: MDA-MB-231 breast
[22] = system: MDA-MB-435
[23] = system: MDA-N
[24] = system: MOLT-4 leukemia
[25] = system: NCI-H226 lung
[26] = system: NCI-H23 lung
[27] = system: NCI-H460 lung
[28] = system: NCI-H522 lung
[29] = system: NCI/ADR-RES ovarian
[30] = system: OVCAR-3 ovarian
[31] = system: OVCAR-4 ovarian
[32] = system: OVCAR-5 ovarian
[33] = system: OVCAR-8 ovarian
[34] = system: PC-3 prostate
[35] = system: RPMI-8226 leukemia
[36] = system: RXF 393 renal
[37] = system: SF-268 CNS
[38] = system: SF-295 CNS
[39] = system: SF-539 CNS
[40] = system: SK-MEL-28 melanoma
[41] = system: SK-OV-3 ovarian
[42] = system: SN12C renal
[43] = system: SNB-19 CNS
[44] = system: SNB-75 CNS
[45] = system: SR leukemia
[46] = system: T-47D breast
[47] = system: U251 CNS
[48] = system: UACC-257 melanoma
[49] = system: UACC-62 melanoma
[50] = system: UO-31 renal
[51] = system: HT29 colon
[52] = system: IGROV1 ovarian
[53] = system: LOX IMVI melanoma
[54] = system: SK-MEL-2 melanoma
[55] = system: SK-MEL-5 melanoma
[56] = system: SW-620 colon
[57] = system: TK-10 renal
[58] = system: HL-60(TB) leukemia
[59] = system: HS 578T breast

## Cc1sc(Nc2ccccc2[N+](=O)[O-])c(C#N)c1C
[1]
  TGI: 61.7 µM
[2]
  TGI: > 100 µM
[3]
  TGI: > 100 µM
[4]
  TGI: > 100 µM
[5]
  TGI: 57.9 µM
[6]
  TGI: > 100 µM
[7]
  TGI: > 100 µM
[8]
  TGI: > 100 µM
[9]
  TGI: > 100 µM
[10]
  TGI: > 100 µM
[11]
  TGI: > 100 µM
[12]
  TGI: > 100 µM
[13]
  TGI: > 100 µM
[14]
  TGI: 76.2 µM
[15]
  TGI: 53 µM
[16]
  TGI: > 100 µM
[17]
  TGI: > 100 µM
[18]
  TGI: > 100 µM
[19]
  TGI: > 100 µM
[20]
  TGI: > 100 µM
[21]
  TGI: 65.8 µM
[22]
  TGI: > 100 µM
[23]
  TGI: > 100 µM
[24]
  TGI: > 100 µM
[25]
  TGI: > 100 µM
[26]
  TGI: 44.8 µM
[27]
  TGI: > 100 µM
[28]
  TGI: 20.9 µM
[29]
  TGI: 96.6 µM
[30]
  TGI: 61.2 µM
[31]
  TGI: > 100 µM
[32]
  TGI: > 100 µM
[33]
  TGI: > 100 µM
[34]
  TGI: > 100 µM
[35]
  TGI: > 100 µM
[36]
  TGI: 57.1 µM
[37]
  TGI: 61.8 µM
[38]
  TGI: > 100 µM
[39]
  TGI: 68.3 µM
[40]
  TGI: > 100 µM
[41]
  TGI: > 100 µM
[42]
  TGI: > 100 µM
[43]
  TGI: 61.9 µM
[44]
  TGI: 39.9 µM
[45]
  TGI: > 100 µM
[46]
  TGI: > 100 µM
[47]
  TGI: 62.6 µM
[48]
  TGI: > 100 µM
[49]
  TGI: > 100 µM
[50]
  TGI: > 100 µM

## Cc1cc(O)c(C=NC(=S)c2ccccc2)c(=O)o1
[1]
  TGI: > 100 µM
[3]
  TGI: > 100 µM
[4]
  TGI: > 100 µM
[5]
  TGI: > 100 µM
[6]
  TGI: > 100 µM
[8]
  TGI: > 100 µM
[9]
  TGI: > 100 µM
[10]
  TGI: > 100 µM
[11]
  TGI: > 100 µM
[12]
  TGI: > 100 µM
[13]
  TGI: > 100 µM
[14]
  TGI: > 100 µM
[15]
  TGI: > 100 µM
[51]
  TGI: > 100 µM
[52]
  TGI: > 100 µM
[17]
  TGI: > 100 µM
[53]
  TGI: > 100 µM
[18]
  TGI: > 100 µM
[20]
  TGI: > 100 µM
[21]
  TGI: > 100 µM
[22]
  TGI: > 100 µM
[23]
  TGI: > 100 µM
[24]
  TGI: > 100 µM
[25]
  TGI: > 100 µM
[26]
  TGI: > 100 µM
[27]
  TGI: > 100 µM
[29]
  TGI: > 100 µM
[30]
  TGI: > 100 µM
[31]
  TGI: > 100 µM
[32]
  TGI: > 100 µM
[33]
  TGI: > 100 µM
[34]
  TGI: > 100 µM
[38]
  TGI: > 100 µM
[39]
  TGI: > 100 µM
[54]
  TGI: > 100 µM
[40]
  TGI: > 100 µM
[55]
  TGI: > 100 µM
[41]
  TGI: > 100 µM
[42]
  TGI: > 100 µM
[43]
  TGI: > 100 µM
[44]
  TGI: > 100 µM
[56]
  TGI: > 100 µM
[46]
  TGI: > 100 µM
[57]
  TGI: > 100 µM
[47]
  TGI: > 100 µM
[48]
  TGI: > 100 µM
[49]
  TGI: > 100 µM
[50]
  TGI: > 100 µM

## O=c1c2cc(-c3ccccc3)cnc2sn1-c1ccc(Oc2ccccc2)cc1
[1]
  TGI: 36.4 µM
[2]
  TGI: 78.6 µM
[3]
  TGI: 53.2 µM
[4]
  TGI: > 100 µM
[5]
  TGI: 62.4 µM
[6]
  TGI: > 100 µM
[7]
  TGI: 82.9 µM
[8]
  TGI: > 100 µM
[9]
  TGI: > 100 µM
[10]
  TGI: > 100 µM
[11]
  TGI: > 100 µM
[12]
  TGI: > 100 µM
[13]
  TGI: > 100 µM
[58]
  TGI: > 100 µM
[14]
  TGI: 56.8 µM
[15]
  TGI: > 100 µM
[51]
  TGI: 47.6 µM
[52]
  TGI: > 100 µM
[16]
  TGI: > 100 µM
[17]
  TGI: > 100 µM
[18]
  TGI: > 100 µM
[19]
  TGI: > 100 µM
[20]
  TGI: > 100 µM
[21]
  TGI: 34.9 µM
[22]
  TGI: > 100 µM
[23]
  TGI: > 100 µM
[24]
  TGI: > 100 µM
[25]
  TGI: > 100 µM
[26]
  TGI: > 100 µM
[27]
  TGI: > 100 µM
[28]
  TGI: > 100 µM
[29]
  TGI: 80.1 µM
[30]
  TGI: > 100 µM
[31]
  TGI: 51.9 µM
[32]
  TGI: > 100 µM
[33]
  TGI: > 100 µM
[34]
  TGI: 52.1 µM
[35]
  TGI: > 100 µM
[36]
  TGI: 44.6 µM
[37]
  TGI: > 100 µM
[38]
  TGI: > 100 µM
[39]
  TGI: > 100 µM
[54]
  TGI: > 100 µM
[40]
  TGI: > 100 µM
[41]
  TGI: > 100 µM
[42]
  TGI: 89.8 µM
[43]
  TGI: 54.7 µM
[44]
  TGI: 75.9 µM
[45]
  TGI: > 100 µM
[56]
  TGI: > 100 µM
[46]
  TGI: > 100 µM
[47]
  TGI: 78.1 µM
[48]
  TGI: > 100 µM
[49]
  TGI: > 100 µM
[50]
  TGI: > 100 µM

## O=[N+]([O-])c1cc(-c2nnc(C34CC5CC(CC(C5)C3)C4)o2)cc([N+](=O)[O-])c1
[1]
  TGI: > 100 µM
[2]
  TGI: > 100 µM
[3]
  TGI: > 100 µM
[4]
  TGI: > 100 µM
[6]
  TGI: > 100 µM
[7]
  TGI: > 100 µM
[8]
  TGI: 42.4 µM
[9]
  TGI: > 100 µM
[10]
  TGI: > 100 µM
[11]
  TGI: > 100 µM
[12]
  TGI: > 100 µM
[13]
  TGI: > 100 µM
[58]
  TGI: > 100 µM
[14]
  TGI: > 100 µM
[15]
  TGI: 94.6 µM
[59]
  TGI: > 100 µM
[51]
  TGI: 32.2 µM
[52]
  TGI: > 100 µM
[16]
  TGI: > 100 µM
[17]
  TGI: > 100 µM
[53]
  TGI: > 100 µM
[18]
  TGI: 70.4 µM
[19]
  TGI: > 100 µM
[21]
  TGI: > 100 µM
[22]
  TGI: 77 µM
[23]
  TGI: > 100 µM
[24]
  TGI: > 100 µM
[25]
  TGI: > 100 µM
[26]
  TGI: > 100 µM
[27]
  TGI: > 100 µM
[28]
  TGI: > 100 µM
[29]
  TGI: > 100 µM
[30]
  TGI: > 100 µM
[31]
  TGI: > 100 µM
[32]
  TGI: > 100 µM
[33]
  TGI: > 100 µM
[34]
  TGI: > 100 µM
[35]
  TGI: > 100 µM
[36]
  TGI: > 100 µM
[37]
  TGI: > 100 µM
[38]
  TGI: > 100 µM
[39]
  TGI: > 100 µM
[54]
  TGI: > 100 µM
[40]
  TGI: > 100 µM
[55]
  TGI: 44.8 µM
[41]
  TGI: > 100 µM
[42]
  TGI: > 100 µM
[43]
  TGI: > 100 µM
[44]
  TGI: > 100 µM
[45]
  TGI: > 100 µM
[56]
  TGI: 37.8 µM
[46]
  TGI: > 100 µM
[47]
  TGI: > 100 µM
[48]
  TGI: > 100 µM
[49]
  TGI: > 100 µM
[50]
  TGI: > 100 µM
